Columns and labels:
JAK1 kinase = JAK1 kinase (Homo sapiens (Human), UniProt P23458); conditions: read-out: JAK1 IC50
JAK2 kinase = JAK2 kinase (Homo sapiens (Human), UniProt O60674); conditions: read-out: JAK2 IC50
Sequence of JAK2 kinase (O60674 826-1132): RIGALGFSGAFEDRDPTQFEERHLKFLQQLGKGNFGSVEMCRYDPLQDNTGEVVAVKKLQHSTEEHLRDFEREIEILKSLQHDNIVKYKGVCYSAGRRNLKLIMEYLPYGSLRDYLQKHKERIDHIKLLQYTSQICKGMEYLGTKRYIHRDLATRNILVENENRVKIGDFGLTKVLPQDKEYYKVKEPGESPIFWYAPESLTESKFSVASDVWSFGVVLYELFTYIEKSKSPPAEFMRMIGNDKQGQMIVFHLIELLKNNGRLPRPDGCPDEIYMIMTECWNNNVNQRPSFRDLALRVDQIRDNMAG

Sequence of JAK1 kinase (P23458 850-1154): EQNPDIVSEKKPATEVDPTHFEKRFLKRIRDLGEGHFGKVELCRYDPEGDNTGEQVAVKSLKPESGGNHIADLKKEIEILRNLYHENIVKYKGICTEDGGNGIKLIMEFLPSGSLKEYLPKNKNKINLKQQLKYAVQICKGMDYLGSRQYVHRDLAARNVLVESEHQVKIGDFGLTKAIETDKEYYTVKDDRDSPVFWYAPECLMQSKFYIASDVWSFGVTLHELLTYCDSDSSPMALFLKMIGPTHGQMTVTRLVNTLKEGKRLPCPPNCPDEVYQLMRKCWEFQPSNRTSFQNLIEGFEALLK

SMILES | IC50 (JAK1 kinase) | IC50 (JAK2 kinase)
NC(=O)c1cnc(Nc2cnn(C3CCOCC3)c2)nc1NCc1c(F)cccc1F [Example 137, 4-[(2,6-difluoro-benzyl)amino]-2-[[1-(tetra hydro-2H-pyran-4-yl)-1H-pyrazol-4-yl)amino]pyrimidin-5-carboxamide] | 16.4 nM | 0.27 nM
CC(C)=CCNc1nc(Nc2cnn(C(C)(C)C)c2)ncc1C(N)=O [Example 230, 2-((1-(tert-butyl)-1H-pyrazol-4-yl)amino)-4-((3-methylbut-2-en-1-yl)amino)pyrimidin-5-carboxamide] | 28.1 nM | 1.7 nM
CC(C)C/C=C/CNc1nc(Nc2cnn(C(C)(C)C)c2)ncc1C(N)=O [Example 246, (E)-2-((1-tert-butyl-1H-pyrazol-4-yl)amino)-4-((5-methylhex-2-en-1-yl)amino)pyrimidin-5-carboxamide] | 345 nM | 42.5 nM
Cn1cc(Nc2ncc(C(N)=O)c(NCc3c(Cl)cccc3Cl)n2)cn1 [Example 5, 4-((2,6-dichlorobenzyl)amino)-2-((1-methyl-1H-pyrazol-4-yl)amino)pyrimidin-5-carboxamide] | 23.4 nM | –
CCn1cc(Nc2ncc(C(N)=O)c(NCc3c(F)cccc3F)n2)cn1 [Example 132, 4-[(2,6-difluoro-benzyl)amino]-2-[(1-ethyl-1H-pyrazol-4-yl)amino]pyrimidin-5-carboxamide] | 14.3 nM | 0.51 nM
C=C(C)CNc1nc(Nc2cnn(C(C)(C)C)c2)ncc1C(N)=O [Example 229, 2-((1-tert-butyl-1H-pyrazol-4-yl)amino)-4-((2-methylallyl)amino)pyrimidin-5-carboxamide] | – | 2.8 nM
Cn1cc(Nc2ncc(C(N)=O)c(NCc3ccccc3)n2)cn1 [Example 1, 4-benzylamino-2-((1-methyl-1H-pyrazol-4-yl)amino)pyrimidin-5-carboxamide] | 84.7 nM | 9.5 nM
C=C(C)CCNc1nc(Nc2cnn(C(C)(C)C)c2)ncc1C(N)=O [Example 242, 2-((1-tert-butyl-1H-pyrazol-4-yl)amino)-4-((3-methylbut-3-en-1-yl)amino)pyrimidin-5-carboxamide] | 8 nM | 1.5 nM
CC(C)=CCCCNc1nc(Nc2cnn(C(C)(C)C)c2)ncc1C(N)=O [Example 245, 2-((1-tert-butyl-1H-pyrazol-4-yl)amino)-4-((5-methylhex-4-en-1-yl)amino)pyrimidin-5-carboxamide] | 40.8 nM | 16.9 nM
COc1ccccc1CNc1nc(Nc2cnn(C)c2)ncc1C(N)=O [Example 2, 4-((2-methoxybenzyl)amino)-2-((1-methyl-1H-pyrazol-4-yl)amino)pyrimidin-5-carboxamide] | 2.53 nM | 2.19 nM
Cc1cccc(C)c1CNc1nc(Nc2cnn(CCO)c2)ncc1C(N)=O [Example 174, 4-[(2,6-dimethyl-benzyl)amino]-2-[[1-(2-hydroxy-ethyl)-1H-pyrazol-4-yl]amino]pyrimidin-5-carboxamide] | 54.7 nM | 3.06 nM
CC(C)(C)n1cc(Nc2ncc(C(N)=O)c(NCC3CC=CC3)n2)cn1 [Example 236, 2-((1-(tert-butyl)-1H-pyrazol-4-yl)amino)-4-((cyclopent-3-en-1-ylmethyl)amino)pyrimidin-5-carboxamide] | 7.6 nM | 2.6 nM
COCCn1cc(Nc2ncc(C(N)=O)c(NCc3c(F)cccc3OC)n2)cn1 [Example 7, 4-((2-fluoro-6-methoxybenzyl)amino)-2-((1-(2-methoxyethyl)-1H-pyrazol-4-yl)amino)pyrimidin-5-carboxamide] | 9.18 nM | 1.01 nM
CC(C)=CCNc1nc(Nc2cnn(C3CCOCC3)c2)ncc1C(N)=O [Example 233, 4-((3-methylbut-2-en-1-yl)amino)-2-((1-(tetrahydro-2H-pyran-4-yl)-1H-pyrazol-4-yl)amino)pyrimidin-5-carboxamide] | 6.5 nM | 0.9 nM
C=C(C)CNc1nc(Nc2cnn(C3CCOCC3)c2)ncc1C(N)=O [Example 232, 4-((2-methylallyl)amino)-2-((1-(tetrahydro-2H-pyran-4-yl)-1H-pyrazol-4-yl)amino)pyrimidin-5-carboxamide] | 34.4 nM | 2 nM
C=CCNc1nc(Nc2cnn(C(C)(C)C)c2)ncc1C(N)=O [Example 238, 4-(allylamino)-2-((1-(tert-butyl)-1H-pyrazol-4-yl)amino)pyrimidin-5-carboxamide] | 11.5 nM | 3.6 nM

SMILES | IC50 (JAK1 kinase) | IC50 (JAK2 kinase)
CC(=O)N1CCC(CCNc2nc(Nc3cnn(C)c3)ncc2C(N)=O)CC1 [Example 12, 4-((2-(1-acetylpiperidin-4-yl)ethyl)amino)-2-((1-methyl-1H-pyrazol-4-yl)amino)pyrimidin-5-carboxamide] | 352 nM | –
C=CCCNc1nc(Nc2cnn(C(C)(C)C)c2)ncc1C(N)=O [Example 228, 4-(but-3-en-1-ylamino)-2-((1-(tert-butyl)-1H-pyrazol-4-yl)amino)pyrimidin-5-carboxamide] | – | 13.9 nM
C=C(C)CCCNc1nc(Nc2cnn(C(C)(C)C)c2)ncc1C(N)=O [Example 244, 2-((1-tert-butyl-1H-pyrazol-4-yl)amino)-4-((4-methylpent-4-en-1-yl)amino)pyrimidin-5-carboxamide] | 10.8 nM | 3 nM
COc1cccc(F)c1CNc1nc(Nc2cnn(C)c2)ncc1C(N)=O [Example 3, 4-((2-fluoro-6-methoxybenzyl)amino)-2-((1-methyl-1H-pyrazol-4-yl)amino)pyrimidin-5-carboxamide] | 2.81 nM | 0.57 nM
COc1ccccc1CNc1nc(Nc2cnn(CCO)c2)ncc1C(N)=O [Example 172, 4-[(2-methoxybenzyl)amino]-2-[[1-(2-hydroxyethyl)-1H-pyrazol-4-yl]amino]pyrimidin-5-carboxamide] | 15.6 nM | 0.95 nM
Cn1cc(Nc2ncc(C(N)=O)c(NCCCCCO)n2)cn1 [Example 8, 4-((5-hydroxypentyl)amino)-2-((1-methyl-1H-pyrazol-4-yl)amino)pyrimidin-5-carboxamide] | 80.3 nM | –
NC(=O)c1cnc(Nc2cnn(C3CC3)c2)nc1NCc1c(F)cccc1F [Example 134, 4-[(2,6-difluoro-benzyl)amino]-2-[(1-cyclopropyl-1H-pyrazol-4-yl)amino]pyrimidin-5-carboxamide] | – | 1.19 nM
COCCn1cc(Nc2ncc(C(N)=O)c(NCc3c(F)cccc3F)n2)cn1 [Example 6, 4-((2,6-difluorobenzyl)amino)-2-((1-(2-methoxyethyl)-1H-pyrazol-4-yl)amino)pyrimidin-5-carboxamide] | 29.9 nM | 1.27 nM
CC(=O)N1CCC(CNc2nc(Nc3cnn(C)c3)ncc2C(N)=O)CC1 [Example 11, 4-(((1-acetylpiperidin-4-yl)methyl)amino)-2-((1-methyl-1H-pyrazol-4-yl)amino)pyrimidin-5-carboxamide] | – | 33.3 nM
NC(=O)c1cnc(Nc2cnn(CC3CCCO3)c2)nc1NCc1c(F)cccc1F (centres unmarked) [Example 138, 4-[(2,6-difluoro-benzyl)amino]-2-[[1-((tetrahydro-furan-2-yl)methyl)-1H-pyrazol-4-yl]amino]pyrimidin-5-carboxamide] | 88.9 nM | 1.24 nM
COc1cccc(F)c1CNc1nc(Nc2cnn(C(C)C)c2)ncc1C(N)=O [Example 151, 4-[(2-fluoro-6-methoxybenzyl)amino]-2-[(1-isopropyl-1H-pyrazol-4-yl)amino]pyrimidin-5-carboxamide] | 2.77 nM | 0.61 nM
CCn1cc(Nc2ncc(C(N)=O)c(NCc3c(F)cccc3OC)n2)cn1 [Example 150, 4-[(2-fluoro-6-methoxybenzyl)amino]-2-[(1-ethyl-1H-pyrazol-4-yl)amino]pyrimidin-5-carboxamide] | 3.22 nM | –
CC(C)(O)Cn1cc(Nc2ncc(C(N)=O)c(NCc3c(F)cccc3F)n2)cn1 [Example 145, 4-[(2,6-difluoro-benzyl)amino]-2-[[1-(2-hydroxy-2-methylpropyl)-1H-pyrazol-4-yl]amino]pyrimidin-5-carboxamide] | 20.3 nM | 2.08 nM
CC(C)n1cc(Nc2ncc(C(N)=O)c(NCc3c(F)cccc3F)n2)cn1 [Example 133, 4-[(2,6-difluoro-benzyl)amino]-2-[(1-isopropyl-1H-pyrazol-4-yl)amino]pyrimidin-5-carboxamide] | 22.8 nM | 0.47 nM
NC(=O)c1cnc(Nc2cnn(C3CCC3)c2)nc1NCc1c(F)cccc1F [Example 135, 4-[(2,6-difluoro-benzyl)amino]-2-[(1-cyclobutyl-1H-pyrazol-4-yl)amino]pyrimidin-5-carboxamide] | 30.3 nM | 0.61 nM
C=CCCNc1nc(Nc2cnn(C3CCOCC3)c2)ncc1C(N)=O [Example 234, 4-(but-3-en-1-ylamino)-2-((1-(tetrahydro-2H-pyran-4-yl)-1H-pyrazol-4-yl)amino)pyrimidin-5-carboxamide] | 31 nM | 1.2 nM
